Measured values taken from patent publication US6083920A, “Compositions for modulating intracellular inositol trisphosphate concentration” (priority 1996, dated 2000).
“Also recorded” adds a separate entry of the source.

How the values were obtained:
[1] = Lysosphingolipid loading of isolated neuronal plasma membrane; type: in vitro ADME, chick; conditions: Plasma Membrane Suspension, 10 μmolar exposure
Description: Total lipids were removed from the neuron samples by repeated extraction with chloroforn:methanol (2:1, vol:vol). […] The recovered lysosphingolipids were stably tagged with NBDZF by the rapid procedure of Nozowa et al. (supra). The fluorescence tagged neuronal lysosphingolipids were separated in parallel with reference standards NBDZF-Sph, NBDZF-Psy, and NBDZF-Lsm on high performance silica gel thin layer chromatography plates with acetonitrile:H2 O (10:0.5, vol:vol). The highly fluorescent, well separated bands were scraped from the plate. The fluorescence tagged lysosphingolipids are eluted from the scraped silica gel with methanol:1 N HCl (1:0.02, vol:vol). The fluorescence tagged lysosphingolipid eluates were quantitated against reference standards by fluorescence measurement in a Perkin-Elmer LS-5 Fluorescence Spectrometer.
Physiologically active phospholipase C is present on the endofacial portion of the plasma membrane. A procedure for examining its activity in an intact membrane is provided. […] One hundred Petri dishes of cultured cortical neurons were incubated overnight with 50 μCi [^3 H]myo-inositol per mL of culture medium. […] The collected neurons were homogenized in 5 mL 0.32 M sucrose and centrifuged at 1000×g for 15 minutes. The supernatant was layered on top of 2 ml 1.2 M sucrose and centrifuged at 300,000×g for 20 minutes. The sedimented pellet was resuspended by sonication for 10 seconds in 50 mM Tris buffer (pH 7.4), containing 0.3 μM CaCl2, 1 mM MgCl2, and 0.01% ascorbic acid.
The suspended plasma membrane preparation was apportioned into 250 μl samples, each providing approximately 100 μg membrane protein. Sphingosine, psychosine, and lysosphingomyelin were added to each plasma membrane sample. […] Samples were analyzed for lysosphingolipid loading (i.e., membrane lysosphingolipid content following exposure to exogenous sphingolipid) by fluorescence tagging. […] Values are reported in pmoles lysosphingolipid/mg plasma membrane protein.

[2] = tested on: metabotropic glutamate receptor; experiment: Behavioral analysis after ICV infusion (quisqualate excitotoxicity); type: in vivo, male F344 rats
Method: The animals used in this experiment were male F344 rats (Charles River Breeding Laboratories). The animals were housed individually, exposed to a 12-hour light-dark cycle, and allowed free access to food and water. The animals weighed approximately 250 g at the beginning of each experiment and were weighed daily. In addition, the animals were habituated to handling before each experiment.
(§1) Before administering various compounds, the animals were anesthetized with sodium pentobarbital (50 mg/kg, i.p.) and positioned in a sterotaxic instrument. A 26 gauge cannula was inserted into the cerebral ventricle at the following co-ordinates: 1.0 mm posterior to bregma, 1.5 mm lateral to the midline, and 4.0 mm below the dorsal surface of the neocortex. Cannulas were capped and fixed in place with dental cement. One week after cannulation, 10 μl of each of the treatment drugs was infused, ICV (i.e. into the ventricals of the brain), via a micropump at a rate of 10 μl/min. For this procedure, the animals were lightly restrained and unanesthetized. Following administration of the compound, the infusion cannula remained in position for one minute, after which the permanent in situ cannula was capped.
The compounds administered were obtained from a commercial supplier (Sigma Chemical Co., St. Louis, Mo.) and dissolved in saline prior to injection. […]
Pilot studies identified several specific behavioral measures that could be used to indicate excessive activation of the metabotropic receptor (see Table 3). […] The experiments that follow were based on an analysis of these behaviors over a two hour period after administration of the compounds of the invention. Behavioral observation was carried out by two trained observers, who worked independently of one another and who were blind to the experimental groups. […] Frequency and duration means were computed by subtracting pre-infusion means from post-infusion means.
Some of the experiments that were performed first were carried out to determine the amount of quisqualate required to produce behavioral and histological changes and the amount of lysosphingolipids that could effectively prevent or reverse these effects. Table 3 outlines the behavioral responses of rats to various doses of quisqualate (injected as described above) and the associated histological changes. The behaviors are listed as they occur chronologically. The limb clasp and reflex tests indicate the degree of decortication. A limb clasp or placement score of zero is normal, and a score of 3 is severely abnormal.
The data shown in Table 4 represents the observations of pilot studies aimed at determining the effect (on behavior) of lysosphingolipids infused directly into the lateral ventricles of the brain 30 minutes prior to infusion of quisqualate.
The experiment began one week after ICV cannulation. Animals (n=6 per group) were randomly allocated to one of 8 treatment groups: (1) saline, (2) quisqualate at 225 nmoles, (3) psychosine at 125 nmoles, (4) lysosphingomyelin at 125 nmoles, (5) lysosphingomyelin at 150 nmoles, (6) quisqualate at 225 nmoles and psychosine at 125 nmoles, (7) quisqualate at 225 nmoles and lysosphingomyelin at 125 nmoles, and (8) quisqualate at 225 nmoles and lysosphingomyelin at 150 nmoles. Following the baseline observation period, animals received the first of two ICV infusions (all infusions were of a 10 μl volume that was administered over a 1 minute period). For the first five groups listed above, this consisted of saline (10 μl/minute), for the following 3 groups the infusions were psychosine at 125 nmoles, lysosphingomyelin at 125 nmoles, or Iysosphingomyelin at 150 nmoles, respectively. Thirty minutes later, all animals received the second infusion which, for the first five groups listed above, consisted of saline, quisqualate at 225 nmoles, psychosine at 125 nmoles, lysosphingomyelin at 125 mrnoles, and lysosphingomyelin at 150 nmoles respectively. […]

[3] = tested on: hippocampal neurons; experiment: Histological analysis of brain 7 days after ICV infusion (cresyl violet); type: in vivo, male F344 rats; conditions: pretreatment with psychosine 125 nmoles, quisqualate 225 nmoles ICV, 7 days
Method: as §1
Seven days after the compounds were administered, animals were sacrificed by transcardial perfusion with neutralized, buffered 10% formalin-saline. Their brains were removed, post-fixed overnight in 10% formalin-saline, and sectioned along the coronal plane (into 50 μm thick sections) on a freezing microtome. The sections were stained with cresyl violet to determine the extent of cellular destruction. […]
Given that high concentrations of metabotropic receptors are located in the hippocampus, and that the hippocampus is particularly vulnerable to the effects of a variety of insults including ischemia and hypoxia, this region was examined for evidence of neuronal degeneration due to glutamate excitotoxicity.

CCCCCCCCCCCCC/C=C/[C@@H](O)[C@@H](N)CO[C@@H]1O[C@H](CO)[C@H](O)[C@H](O)[C@H]1O [psychosine, lysocerebroside]
membrane lysosphingolipid content, 0 hours of incubation ([1]; 0 h): 45 ± 5 pmoles lysosphingolipid/mg pla | membrane lysosphingolipid content, 0.5 hours of incubation ([1]; 0.5 h): 75 ± 20 pmoles lysosphingolipid/mg pla | membrane lysosphingolipid content, 1.0 hours of incubation ([1]; 1.0 h): 120 ± 15 pmoles lysosphingolipid/mg pla | membrane lysosphingolipid content, 2.0 hours of incubation ([1]; 2.0 h): 180 ± 15 pmoles lysosphingolipid/mg pla | membrane lysosphingolipid content, 3.0 hours of incubation ([1]; 3.0 h): 175 ± 20 pmoles lysosphingolipid/mg pla | convulsant behavior, compound alone ([2]; 125 nmoles ICV, no quisqualate): displayed no convulsant behavior | effective dose ([2]; ICV, rat, pilot testing): 125 nmol | BEHAVIORAL RESPONSE ([2]; Psychosine 25 nmoles ICV 30 minutes prior to Quisqualate 200 nmoles): Moderate convulsions, teeth chattering; also recorded: akinesia and hyperactivity | BEHAVIORAL RESPONSE ([2]; Psychosine 50 nmoles ICV 30 minutes prior to Quisqualate 200 nmoles): Moderate convulsions, teeth chattering; also recorded: akinesia and hyperactivity | BEHAVIORAL RESPONSE ([2]; Psychosine 100 nmoles ICV 30 minutes prior to Quisqualate 200 nmoles): Almost complete attenuation of Quisqualate; also recorded: some teeth chattering post-injection | BEHAVIORAL RESPONSE ([2]; Psychosine 100 nmoles ICV 30 minutes prior to Quisqualate 250 nmoles): Moderate convulsions, teeth chattering; also recorded: akinesia. Quisqualate markedly reduced | BEHAVIORAL RESPONSE ([2]; Psychosine 125 nmoles ICV 30 minutes prior to Quisqualate 200 nmoles): Complete attenuation of Quisqualate response | BEHAVIORAL RESPONSE ([2]; Psychosine 125 nmoles ICV 30 minutes prior to Quisqualate 225 nmoles): Complete attenuation of Quisqualate response | BEHAVIORAL RESPONSE ([2]; Psychosine 150 nmoles ICV 30 minutes prior to Quisqualate 250 nmoles): Almost complete attenuation of Quisqualate | sedation produced by the lysosphingolipid ([2]; Psychosine 150 nmoles ICV, short term): sedation at this dose | behavioral or neurotoxic effects of the compound itself ([2]; doses as high as 125 nmoles per animal ICV): no behavioral or neurotoxic effects were observed | behavioral and histological changes caused by quisqualate ([2]; pretreated with 125 nmoles ICV, rat): absent | number of convulsions or spasms ([2]; pretreatment 125 nmoles ICV 30 minutes before quisqualate 225 nmoles, n=6): significantly (p<01) attenuated | neuronal loss (CA1 pyramidal neurons, hippocampus) caused by quisqualate [3]: prevents the neuronal loss caused by quisqualate
